# Structures can show the parent of a compound that is named as a salt.
# Experiments:
# Bovine LOX = biological target: T1, Bovine LOX (Bos taurus, UniProt P33072); experiment: LOX amine oxidase inhibition, peroxidase-coupled Amplex Red assay; assay type: biochemical; conditions: 30 min preincubation at 37° C., putrescine substrate
# T1 sequence (P33072 170-418): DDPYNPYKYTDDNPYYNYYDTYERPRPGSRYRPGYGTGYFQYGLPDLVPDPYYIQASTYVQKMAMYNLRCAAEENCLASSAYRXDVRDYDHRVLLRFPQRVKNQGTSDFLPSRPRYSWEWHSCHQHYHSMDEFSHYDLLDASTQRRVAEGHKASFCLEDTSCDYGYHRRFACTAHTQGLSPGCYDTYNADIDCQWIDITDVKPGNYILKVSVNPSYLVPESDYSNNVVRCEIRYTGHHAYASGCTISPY
# How it was run: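 Bovine LOX in 1.2 M urea, 50 mM sodium borate pH 8.2 […]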
# Human LOXL2 = biological target: T2, Human LOXL2 (Homo sapiens, UniProt Q9Y4K0); experiment: LOXL2 amine oxidase inhibition, peroxidase-coupled Amplex Red assay; assay type: biochemical; conditions: 30 min preincubation at 37° C., putrescine substrate
# T2 sequence (Q9Y4K0 26-774): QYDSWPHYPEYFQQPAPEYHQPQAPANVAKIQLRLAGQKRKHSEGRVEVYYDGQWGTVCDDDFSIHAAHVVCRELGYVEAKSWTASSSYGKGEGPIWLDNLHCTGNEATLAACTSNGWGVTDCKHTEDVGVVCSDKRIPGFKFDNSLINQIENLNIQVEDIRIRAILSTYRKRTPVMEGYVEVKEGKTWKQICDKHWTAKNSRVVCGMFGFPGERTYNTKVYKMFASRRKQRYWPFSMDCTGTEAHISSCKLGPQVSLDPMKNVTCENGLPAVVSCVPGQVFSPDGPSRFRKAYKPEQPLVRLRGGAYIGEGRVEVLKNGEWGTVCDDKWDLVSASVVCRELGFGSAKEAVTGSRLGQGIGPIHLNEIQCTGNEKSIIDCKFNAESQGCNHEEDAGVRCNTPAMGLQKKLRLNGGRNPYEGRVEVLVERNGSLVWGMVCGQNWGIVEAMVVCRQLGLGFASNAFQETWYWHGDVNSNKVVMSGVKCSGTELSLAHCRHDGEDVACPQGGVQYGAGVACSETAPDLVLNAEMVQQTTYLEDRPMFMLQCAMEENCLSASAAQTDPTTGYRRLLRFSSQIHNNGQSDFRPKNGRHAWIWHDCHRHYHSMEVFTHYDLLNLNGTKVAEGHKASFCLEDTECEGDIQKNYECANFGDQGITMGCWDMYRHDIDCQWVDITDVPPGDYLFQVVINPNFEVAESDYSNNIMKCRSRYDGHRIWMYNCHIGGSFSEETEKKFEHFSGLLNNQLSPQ
# How it was run: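 Enzyme preincubated 30 min at 37 °C with compound (11-point curve) in 1.2 M urea, 50 mM borate pH 8.2 plus 1 μM mofegiline and 0.5 mM pargyline; putrescine at twice KM (10 mM for LOXL2), Amplex Red and HRP added. Fluorescence (565/590 nm) read every 2.5 min for 30 min; IC50 from kinetic slopes.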
SMILES,IC50 (Bovine LOX),IC50 (Human LOXL2)
"Cc1nn(C/C(F)=C/CN)c(C)c1Cc1ccc(S(=O)(=O)N(C)C)cc1 [Compound 2, (Z)-4-((1-(4-amino-2-fluorobut-2-en-1-yl)-3,5-dimethyl-1H-pyrazol-4-yl)methyl)-N,N-dimethylbenzenesulfonamide hydrochloride]",< 10 µM,< 1 µM
"Cc1nn(Cc2cc(F)c(S(=O)(=O)N(C)C)cc2F)c(C)c1C/C(F)=C/CN [Compound 25, (Z)-4-((4-(4-amino-2-fluorobut-2-en-1-yl)-3,5-dimethyl-1H-pyrazol-1-yl)methyl)-2,5-difluoro-N,N-dimethylbenzenesulfonamide hydrochloride]",< 10 µM,< 1 µM
"Cc1nn(C/C(F)=C/CN)c(C)c1Cc1ccc(C(=O)N(C)C)cc1 [Compound 14, (Z)-4-((1-(4-amino-2-fluorobut-2-en-1-yl)-3,5-dimethyl-1H-pyrazol-4-yl)methyl)-N,N-dimethylbenzamide hydrochloride]",< 10 µM,< 10 µM
"Cc1nn(C/C(F)=C/CN)c(C)c1Cc1ccc(S(=O)(=O)N(C)C)c(C(F)(F)F)c1 [Compound 18, (Z)-4-((1-(4-amino-2-fluorobut-2-en-1-yl)-3,5-dimethyl-1H-pyrazol-4-yl)methyl)-N,N-dimethyl-2-(trifluoromethyl)benzenesulfonamide hydrochloride]",< 10 µM,< 1 µM
"Cc1nn(C/C(F)=C/CN)c(C)c1Cc1ccc(S(C)(=O)=O)cc1Cl [Compound 12, (Z)-4-(4-(2-chloro-4-(methylsulfonyl)benzyl)-3,5-dimethyl-1H-pyrazol-1-yl)-3-fluorobut-2-en-1-amine hydrochloride]",< 10 µM,< 1 µM
"CCc1nn(C/C(F)=C/CN)c(CC)c1Cc1ccc(S(=O)(=O)N(C)C)cc1 [Compound 13, (Z)-4-((1-(4-amino-2-fluorobut-2-en-1-yl)-3,5-diethyl-1H-pyrazol-4-yl)methyl)-N,N-dimethyl benzenesulfonamide hydrochloride]",< 10 µM,< 1 µM
"Cc1nn(C/C(F)=C/CN)c(C(=O)NC(C)(C)C)c1Cc1ccc(S(=O)(=O)N(C)C)c(Cl)c1 [Compound 62, (Z)-1-(4-amino-2-fluorobut-2-en-1-yl)-N-(tert-butyl)-4-(3-chloro-4-(N,N-dimethylsulfamoyl)benzyl)-3-methyl-1H-pyrazole-5-carboxamide hydrochloride]",< 10 µM,< 1 µM
"N#CCCN [BAPN, β-aminopropionitrile, reference compound]",< 1 µM,< 1 µM
"Cc1nn(C/C(F)=C/CN)c(C)c1Cc1ccc(S(=O)(=O)N2CCOCC2)cc1 [Compound 6, (Z)-4-(3,5-dimethyl-4-(4-(morpholinosulfonyl)benzyl)-1H-pyrazol-1-yl)-3-fluorobut-2-en-1-amine hydrochloride]",< 10 µM,< 1 µM
"Cc1nn(C/C(F)=C/CN)c(C)c1Cc1ccc(S(=O)(=O)N(C)C)c2ccccc12 [Compound 9, (Z)-4-((1-(4-amino-2-fluorobut-2-en-1-yl)-3,5-dimethyl-1H-pyrazol-4-yl)methyl)-N,N-dimethyl naphthalene-1-sulfonamide hydrochloride]",< 10 µM,< 1 µM
"CNS(=O)(=O)c1cc(F)c(Cn2nc(C)c(C/C(F)=C/CN)c2C)cc1F [Compound 26, (Z)-4-((4-(4-amino-2-fluorobut-2-en-1-yl)-3,5-dimethyl-1H-pyrazol-1-yl)methyl)-2,5-difluoro-N-methylbenzenesulfonamide hydrochloride]",< 10 µM,< 1 µM
"Cc1c(Cc2ccc(S(=O)(=O)N(C)C)cc2)c(C(=O)N(C)C)nn1C/C(F)=C/CN [Compound 32, (Z)-1-(4-amino-2-fluorobut-2-enyl)-4-(4-(N,N-dimethylsulfamoyl)benzyl)-N,N,5-trimethyl-1H-pyrazole-3-carboxamide hydrochloride]",< 10 µM,< 1 µM
"Cc1nn(C/C(F)=C/CN)c(C(=O)N(C)C)c1Cc1ccc(S(=O)(=O)N(C)C)cc1 [Compound 29, (Z)-1-(4-amino-2-fluorobut-2-enyl)-4-(4-(N,N-dimethylsulfamoyl)benzyl)-N,N,3-trimethyl-1H-pyrazole-5-carboxamide hydrochloride]",< 10 µM,< 1 µM
"Cc1nn(C/C(F)=C/CN)c(C)c1Cc1ccc(S(=O)(=O)N(C)C)c(Cl)c1 [Compound 15, (Z)-4-((1-(4-amino-2-fluorobut-2-en-1-yl)-3,5-dimethyl-1H-pyrazol-4-yl)methyl)-2-chloro-N,N-dimethylbenzenesulfonamide hydrochloride]",< 10 µM,< 1 µM
"CC(C)c1nn(C/C(F)=C/CN)c(C(C)C)c1Cc1ccc(S(=O)(=O)N(C)C)c(Cl)c1 [Compound 60, (Z)-4-((1-(4-amino-2-fluorobut-2-en-1-yl)-3,5-diisopropyl-1H-pyrazol-4-yl)methyl)-2-chloro-N,N-dimethylbenzenesulfonamide hydrochloride]",< 10 µM,< 1 µM
"Cc1nn(C/C(F)=C/CN)c(C)c1Cc1ccc(S(=O)(=O)N(C)C)cc1Cl [Compound 3, (Z)-4-((1-(4-amino-2-fluorobut-2-en-1-yl)-3,5-dimethyl-1H-pyrazol-4-yl)methyl)-3-chloro-N,N-dimethylbenzenesulfonamide hydrochloride]",< 10 µM,< 1 µM
"Cc1nn(C/C(F)=C/CN)c(C)c1Cc1ccc(S(C)(=O)=O)cc1 [Compound 4, (Z)-4-(3,5-dimethyl-4-(4-(methylsulfonyl)benzyl)-1H-pyrazol-1-yl)-3-fluorobut-2-en-1-amine hydrochloride]",< 10 µM,< 1 µM
"CNS(=O)(=O)c1ccc(Cn2nc(C)c(C/C(F)=C/CN)c2C)c(C(F)(F)F)c1 [Compound 23, (Z)-4-((4-(4-amino-2-fluorobut-2-en-1-yl)-3,5-dimethyl-1H-pyrazol-1-yl)methyl)-N-methyl-3-(trifluoromethyl)benzenesulfonamide hydrochloride]",< 10 µM,< 1 µM
"Cc1nn(C/C(F)=C/CN)c(C(=O)O)c1Cc1ccc(S(=O)(=O)N(C)C)cc1 [Compound 30, (Z)-1-(4-amino-2-fluorobut-2-enyl)-4-(4-(N,N-dimethylsulfamoyl)benzyl)-3-methyl-1H-pyrazole-5-carboxylic acid hydrochloride]",> 10 µM,< 1 µM
"Cc1nn(C/C(F)=C/CN)c(C(=O)N(C)C)c1Cc1ccc(S(=O)(=O)N(C)C)c(Cl)c1 [Compound 61, (Z)-1-(4-amino-2-fluorobut-2-en-1-yl)-4-(3-chloro-4-(N,N-dimethylsulfamoyl)benzyl)-N,N,3-trimethyl-1H-pyrazole-5-carboxamide hydrochloride]",> 10 µM,< 1 µM
"Cc1nn(Cc2ccc(S(=O)(=O)N(C)C)cc2)c(C)c1C/C(F)=C/CN [Compound 10, (Z)-4-((4-(4-amino-2-fluorobut-2-en-1-yl)-3,5-dimethyl-1H-pyrazol-1-yl)methyl)-N,N-dimethylbenzenesulfonamide hydrochloride]",< 10 µM,< 1 µM
"Cc1nn(C/C(F)=C/CN)c(C)c1Cc1cc(F)c(S(=O)(=O)N(C)C)cc1F [Compound 19, (Z)-4-((1-(4-amino-2-fluorobut-2-en-1-yl)-3,5-dimethyl-1H-pyrazol-4-yl)methyl)-2,5-difluoro-N,N-dimethylbenzenesulfonamide hydrochloride]",< 10 µM,< 1 µM
"CC(C)c1nn(C/C(F)=C/CN)c(C(C)O)c1Cc1ccc(S(=O)(=O)N(C)C)c(Cl)c1 (stereo not drawn) [Compound 59, (Z)-4-((1-(4-amino-2-fluorobut-2-en-1-yl)-5-(1-hydroxyethyl)-3-isopropyl-1H-pyrazol-4-yl)methyl)-2-chloro-N,N-dimethylbenzenesulfonamide hydrochloride]",> 10 µM,< 1 µM
"CCOC(=O)c1nn(C/C(F)=C/CN)c(C)c1Cc1ccc(S(=O)(=O)N(C)C)cc1 [Compound 28, (Z)-ethyl 1-(4-amino-2-fluorobut-2-enyl)-4-(4-(N,N-dimethylsulfamoyl)benzyl)-5-methyl-1H-pyrazole-3-carboxylate hydrochloride]",< 10 µM,< 1 µM

# Reference: patent US20200069648A1, “HALOALLYLAMINE PYRAZOLE DERIVATIVE INHIBITORS OF LYSYL OXIDASES AND USES THEREOF” (Pharmaxis Ltd., priority 2017, published 2020)
